Measured values: patent publication US20260274922A1, “SYNTHETIC ESTROGEN RECEPTOR (ER)-DERIVED PEPTIDE” (THE TEXAS A&M UNIVERSITY SYSTEM, priority 2023, published 2026)
Where no end group is shown, it is not given here. The star is where a group is joined. FITC = O=C1OC2(c3ccc(O)cc3Oc3cc(O)ccc32)c2ccc(NC(=S)*)cc21

How the values were obtained:
[1] = tested on: db/db mice; type: in vivo, mouse
Experimental: Obese mouse models and AF1 peptide treatment. For the high-fat diet (HFD)-induced obese mouse model, the 6-8-week-old male mice were fed with HFD (HFD; 60% kcal from fat, D12492; Research diet, New Brunswick, NJ) for 11 weeks. Then mice received 5 mg/kg body weight control or AF1 peptide through retro orbital injection (twice per week; 5 weeks). For genetic obesity mouse model, the 8-week-old db/db mice were administered with 5 mg/kg body weight control or AF1 peptide through retro orbital injection (twice per week; 5 weeks). Glucose tolerance and insulin tolerance tests were performed in the fourth and fifth week after treatment, respectively. Body composition was measured using EchoMRI™ one day before sacrificing the mice.
Glucose and insulin tolerance tests. For glucose tolerance tests, mice were fasted for 16 h and intraperitoneally (i.p.) injected with dextrose (1 g/kg body weight for mice fed with regular diet; 0.5 g/kg body weight for db/db mice or mice fed with HFD). For insulin tolerance tests, mice were fasted for 6 h and i.p. injected with insulin solution (1 U/kg body weight for male mice; 0.75 U/kg body weight for female mice). Blood glucose levels were measured using glucometer at indicated time points.
Hematoxylin and eosin staining and Oil Red O staining. Livers were embedded into paraffin after being fixed by PFA, and then cut into 5 μm sections. After deparaffinization and hydration, liver sections were stained with hematoxylin for 5 min. After differentiation by 1% acid alcohol, liver sections were stained with 1% eosin for 3 min. Finally, liver sections were dehydrated and mounted with mounting media. For Oil Red O staining, liver frozen sections were prepared and fixed in 10% neutral buffered formalin for 10 min after air dry for 1 h. Liver sections were stained in Oil Red O working solution for 15 min after a quick dip in 60% isopropanol. Liver sections were then stained with hematoxylin for 3 min and covered with aqueous mounting gel. Liver sections were observed using slide scanner (Leica).
(§1) Co-immunoprecipitation and Western blotting analysis. […] Protein bands were detected using a ChemiDoc image system.
Serum lipid profile analysis. Serum triglyceride, AST, ALT, cholesterol, LDL, HDL, NEFA, and ALP were measured using DxC 700 AU Chemistry Analyzer (Beckman Coulter).
Serum insulin and liver triglyceride analysis. Serum insulin and triglyceride levels were measured by using mouse insulin ELISA kit (Mercodia) and triglyceride assay kit (Abcam), respectively. […]

[2] = target: T1, IRS1 (Mus musculus, UniProt P35569); assay: Effect of AF1 peptide on IRS1 phosphorylation at S302 in primary mouse hepatocytes (Western blot); type: cell-based; conditions: WT primary hepatocytes
T1 construct: increased IRS1 protein levels by 50% (p<0.05) in WT primary hepatocytes; endogenous in cells; host or cells: primary mouse hepatocytes (C57BL/6J background; WT, ERα F/F or ERα LivKO)
T1 sequence (P35569 1-1233): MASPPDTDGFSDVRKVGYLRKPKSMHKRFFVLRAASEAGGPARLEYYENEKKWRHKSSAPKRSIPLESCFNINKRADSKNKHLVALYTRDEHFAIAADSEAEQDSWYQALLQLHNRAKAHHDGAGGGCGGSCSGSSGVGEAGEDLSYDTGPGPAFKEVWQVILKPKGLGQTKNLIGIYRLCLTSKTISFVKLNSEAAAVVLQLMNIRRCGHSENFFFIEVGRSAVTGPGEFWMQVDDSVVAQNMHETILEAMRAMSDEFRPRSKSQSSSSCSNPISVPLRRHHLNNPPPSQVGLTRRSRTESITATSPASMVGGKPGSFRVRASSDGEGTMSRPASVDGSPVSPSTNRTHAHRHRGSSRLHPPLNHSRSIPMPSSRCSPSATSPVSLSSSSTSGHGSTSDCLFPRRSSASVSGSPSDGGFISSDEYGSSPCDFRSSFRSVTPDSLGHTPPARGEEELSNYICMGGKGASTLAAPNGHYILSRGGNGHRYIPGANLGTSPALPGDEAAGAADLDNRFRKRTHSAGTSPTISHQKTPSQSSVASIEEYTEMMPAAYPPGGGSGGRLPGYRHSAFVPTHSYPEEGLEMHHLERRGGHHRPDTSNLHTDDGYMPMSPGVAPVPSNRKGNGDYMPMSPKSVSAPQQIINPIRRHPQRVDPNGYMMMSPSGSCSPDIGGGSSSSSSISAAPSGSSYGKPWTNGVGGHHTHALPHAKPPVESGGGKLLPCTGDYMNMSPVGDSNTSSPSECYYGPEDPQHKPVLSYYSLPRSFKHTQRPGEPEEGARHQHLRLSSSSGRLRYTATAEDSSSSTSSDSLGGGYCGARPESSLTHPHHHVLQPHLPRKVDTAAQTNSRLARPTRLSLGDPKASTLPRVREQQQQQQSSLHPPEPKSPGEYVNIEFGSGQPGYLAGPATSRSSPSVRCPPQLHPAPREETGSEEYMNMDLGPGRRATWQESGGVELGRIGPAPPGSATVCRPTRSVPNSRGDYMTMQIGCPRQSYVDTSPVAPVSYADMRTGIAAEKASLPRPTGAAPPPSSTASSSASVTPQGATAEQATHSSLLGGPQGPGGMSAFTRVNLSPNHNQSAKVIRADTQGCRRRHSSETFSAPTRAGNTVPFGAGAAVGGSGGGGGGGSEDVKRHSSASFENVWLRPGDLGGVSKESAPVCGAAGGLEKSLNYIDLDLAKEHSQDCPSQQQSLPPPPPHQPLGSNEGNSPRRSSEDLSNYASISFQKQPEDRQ
Experimental: Primary hepatocytes isolation and cell culture. Primary hepatocytes were isolated. Male mice at age of 8-12 weeks were infused with a perfusion buffer A (calcium and magnesium-free HBSS supplemented with 10 mM HEPES, […], 1 mM glucose, and 1% penicillin-streptomycin, pH 7.4) through portal vein for 6-8 min. Then perfusion buffer A was changed to buffer B (calcium and magnesium-free HBSS supplemented with 10 mM HEPES, 1 mM CaCl2), 1 mM glucose, 1% penicillin-streptomycin, and 0.5 mg/mL collagenase II, pH 7.4). […] Liver cells were suspended and passed through a 70 μm cell strainer, followed by centrifuge at 1700 rpm for 2 min. Pellets were resuspended with Percoll at final concentration of 36% and centrifuged at 1800 rpm for 6 min. The hepatocyte pellet was washed and suspended with DMEM supplemented with 10% FBS and 1% penicillin-streptomycin in collagen-coated plates. The HepG2 cell line was purchased from Abcam and cultured with DMEM medium supplemented with 10% FBS and 1% penicillin-streptomycin in collagen-coated plates. The human embryo kidney (HEK) 293 cell line was purchased from Sigma and cultured with DMEM medium supplemented with 10% FBS and 1% penicillin-streptomycin. FBS-free DMEM medium was used to culture cells during the experiments.
as §1

[3] = db/db mice, 5 mg/kg twice per week, 5 weeks
[4] = db/db mice, 5 mg/kg twice per week, 5 weeks, vs CNTR

YGRKKRRQRRRTKASGMALLHEPLNRPQLKIPLERDSSKPAVYNY ({FITC}-YGRKKRRQRRRTKASGMALLHEPLNRPQLKIPLERDSSKPAVYNY) [AF1 peptide]
liver triglycerides ([1]; db/db mice): decreasing trend
serum HDL ([1]; db/db mice): significantly reduced
serum LDL ([1]; db/db mice): significantly reduced
serum NEFA ([1]; db/db mice): significantly reduced
serum cholesterol ([1]; db/db mice): significantly reduced
serum insulin ([1]; db/db mice): limited effect
serum triglycerides ([1]; db/db mice): decreasing trend
overnight fasting blood glucose [1, 3]: 103.8 ± 3.6 mg/dL
random feeding blood glucose [1, 3]: 360.7 ± 25.1 mg/dL
decrease in overnight fasting blood glucose [1, 4]: 35%
reduction in random feeding blood glucose [1, 4]: 22%
liver steatosis (steatosis structure and liver fat amount) ([1]; db/db mice, H&E and Oil Red O staining): significantly decreased
blood glucose upon glucose or insulin challenge ([1]; db/db mice, glucose and insulin tolerance tests): significantly decreased
decrease in pIRS1-S302 ([1]; db/db mice, liver): 61%
increase in IRS1 ([1]; db/db mice, liver): 114%
increase in pAKT-S473 ([1]; db/db mice, liver): 98%
increase in pAKT-T308 ([1]; db/db mice, liver): 101%
pAKT-S473 and pAKT-T308 ([1]; db/db mice, skeletal muscle and epididymal fat tissues): significantly increased
serum ALP ([1]; mouse, in vivo): limited effect
serum ALT ([1]; mouse, in vivo): limited effect
serum AST ([1]; mouse, in vivo): significantly reduced
decrease in pIRS1-S302 [2]: 75%
increase in IRS1 protein levels ([2]; FIG. 6G): 50%
